Tested on: OVCAR8 cells
Assay: High-throughput screen of Prestwick Chemical Library with or without YM155
Method: High-throughput screen for drugs that synergize with YM155. […] Digitonin (0.8 mg/ml) was used as a positive control for ˜100% cell death. […] The relative synergy for each drug was then calculated by subtracting measured cell survival of combinatorial treatment from the calculated c value.
To identify additional small molecules that synergize with YM155, a small library screen was performed.

SMILES | cell death (0.8 mg/ml, positive control) | cell survival (concentration of 6.3 mM)
C[C@@H]1CC[C@@]2(OC1)O[C@H]1[C@@H](O)[C@H]3[C@@H]4CC[C@H]5C[C@@H](O[C@@H]6O[C@H](CO)[C@H](O[C@@H]7O[C@H](CO)[C@@H](O)[C@H](O[C@@H]8OC[C@@H](O)[C@H](O)[C@H]8O)[C@H]7O[C@@H]7O[C@H](CO)[C@H](O)[C@H](O[C@@H]8O[C@H](CO)[C@@H](O)[C@H](O)[C@H]8O)[C@H]7O)[C@H](O)[C@H]6O)[C@H](O)C[C@]5(C)[C@H]4CC[C@]3(C)[C@H]1[C@@H]2C [Digitonin] | ~100% | –
COc1cc(/C=C/C(=O)N2CCC=CC2=O)cc(OC)c1OC [Piperlongumine] | – | 10 % of the control

— patent publication US20140228423A1, “BIOMARKERS AND THERAPY FOR CANCER” (BAYLOR COLLEGE OF MEDICINE, priority 2011, published 2014)
